The values below come from PMC12514245, “Impaired migration and lung invasion of human melanoma by a novel small molecule targeting the transmembrane domain of death receptor p75^NTR” (EMBO Molecular Medicine, 2025).

The format of data set [1] is in vivo. The settings on record: oral 200 mg/kg/day.
In the next data set the test system is human 70W cells. The experiment in a line: Lung invasion after intravenous injection of 70W cells. The settings on record: 70W cells lose p75ntr expression in vivo. On the procedure: A875 NT cells that both wound areas decreased from 1 to ~0.75 in 24 hours. But in […]
Do the in vitro assays recapitulate melanoma invasiveness? If not, is it possible the ideal compounds were missed from the screening in melanoma cells (Figure 6)? […] This assay simply scores the relative orientation/conformation of the interacting receptor TMDs in isolation form the rest of the receptor. The wound healing assay is a rather simplistic assay of cell motility. The in vitro assay that better recapitulates what may happen in vivo is the Boyden chamber migration/invasion assay.
2. In Figure 7A, co-IP experiment requires input and IgG control to show positivity and specificity. In Figure 7B, quantification using the ratio of Triton-insoluble fascin to total fascin will be much more solid than only showing the western blot.
The input control was added in 7A and quantification in 7B (also in 7A).
"NGF treatment strongly stimulated the association of fascin with p75NTR".
The labels in the Western blot shown in this panel were incorrect. They have now been […]
4. Validation of results in another human cell line
During the past year, multiple tests were done by intravenous injection of human 70W cells, […]
followed by monitoring cells in the lungs in the presence and absence of drug treatment. […]
in vivo environment. […]

On to `Cc1cccc(-c2cncc(Nc3ccc(Br)c(Cl)c3Cl)n2)c1C` [Np75-4A22], for which, in data set [1] (21 consecutive days, females and males), the “mortality, repeated dose” value was “No mortality”. In data set [1] (21 days, females), the “treatment-related effects, repeated dose, females” value is “mild decrease in lymphocyte cellularity and increase granulopoiesis”. The “treatment-related effects, repeated dose, males” value in data set [1] (21 days, males) was “no treatment-related effects”. Also, the “number of metastasized 70W cells in the lungs” value with human 70W cells is reported as “had no effect on the number of metastasized cells”.
